Earlier results as cited in patent US6706282B1, “Controlled delivery of phenoxyethyl-substituted 1,2,4-triazolones” (priority 1998, dated 2004).
Where a name gives a salt, the structure may show the parent alone.

CCc1nn(CCCN2CCN(c3cccc(Cl)c3)CC2)c(=O)n1CCOc1ccccc1 [nefazodone hydrochloride, 2-[3-[4-(3-chlorophenyl)-piperazinyl]propyl]-5-ethyl-4-(2-phenoxyethyl)-2H-1,2,4-triazol-3(4H)-one hydrochloride]
time of peak plasma concentrations after dosing (conventional immediate release formulations): about one
half-life (in vivo): 2 to 4 h
